From publication PMC5366925, “Novel 1, 4-dihydropyridines for L-type calcium channel as antagonists for cadmium toxicity” (Scientific Reports, 2017) come the findings set out here.

≈ marks a conversion by molar mass, not a printed value.

Data set [1] concerns A7r5 cells (containing L-type Ca2+ channels). Description: Intracellular Ca2+ measurement (Fluo-4 NW), CaCl2/KCl-induced increase. In kind it is cell-based, rat. As to conditions: for IC50: Rattus norvegicus, A7r5 cells, 1.5 mM CaCl2 and 50 mM KCl, mean ± SD, unit printed only in abstract, not in Table 2, read-out: Calcium overload-preventing activity (IC50), A7r5; for fold higher activity in A7r5 cells than in SH-SY5Y cells: A7r5 vs SH-SY5Y IC50. How it is done:
(§1) The A7r5 (rat aorta smooth muscle cells) and SH-SY5Y (human neuroblastoma cell line) were obtained from the National Centre for Cell Science, Pune, India. The cells were grown at 37.5 °C in a humidified atmosphere with 5% CO2/95% air in Dulbecco’s modified Eagle medium (DMEM), restraining 2 mM of glutamine and supplemented with 10% fetal bovine serum. Once a week the cells were passaged using 0.25% trypsin, 0.53 mM EDTA (Ethylene diamine tetra acetic acid) solution and grown in […] plastic culture flasks until confluence.
(§2) In the experiment, SH-SY5Y cells were plated in 96-well plates at a density of 30,000 cells per well and incubated for 24 h. A7r5 cells were seeded into 96-well plates at a density of 10,000 cells per well and incubated for 72 h. the intracellular [Ca^2+]i concentration changes were studied using the Fluo-4 NW Calcium Assay Kit (Invitrogen, Sweden), as per the manufacturer’s instructions. Both SH-SY5Y and A7r5 cells were loaded with […] for 45 min. Then, the cells were pre-incubated in the dark for 15 min with the tested compounds at concentrations from […]. The compounds were dissolved in distilled water. Application of carbachol (100 nM) to Fura-4 loaded SH-SY5Y cells was used to stimulate changes in the intracellular [Ca^2+]i concentration, whereas A7r5 cells were treated with 1.5 mM CaCl2 and KCl (50 mM) for 5 min to induce an increase in the [Ca^2+] ion concentration. The intracellular [Ca^2+] ion concentration was measured using the fluorescence spectrophotometer’s (Thermo Ascient, Hyderabad) settings appropriate for an excitation at 494 nm and an emission at 516 nm. Amlodipine was used as the positive control. IC50 values as mean ± SD were calculated using Graph Pad Prism 5.0 software.

In data set [2] the test system is SH-SY5Y cells (containing L- and N-type Ca2+ channels). Briefly: Intracellular Ca2+ measurement (Fluo-4 NW), carbachol-induced increase. As to conditions: Homo sapiens, carbachol 100 nM, mean ± SD, unit printed only in abstract, not in Table 2, read-out: Calcium overload-preventing activity (IC50), SH-SY5Y. The format is cell-based. How it is done:
as §1, §2

Data set [3] concerns A7r5 cells. Description: Cadmium cytotoxicity study (LDH release). In kind it is cell-based, rat. The note with it: for fold decrease in cell lethality (ratio of LC50 vs CdCl2 alone): then CdCl2 for 4 h. How it is done:
The A7r5 cell line was obtained from National Center for Cell Sciences, Pune, India. The cells were grown in Dulbecco’s Modified Eagles Medium (DMEM) supplemented with 5% fetal bovine serum at 37 °C in an atmosphere of 90% air/10% CO2. For determinations of cell viability, A7r5 cells were removed from stock flasks by mild digestion with trypsin-EDTA solution and the stock cultures were developed in 25 cm^2 culture flasks and all trials were done in 96 micro titer plates. After plating, the cells were allowed to grow to confluence for 7–10 days before use.
The rat aorta smooth muscle A7r5 cells received one of the four treatments following overnight incubation. The first group received CdCl2 at 1, 10, 20, 30, 40, 50 μM prepared in complete culture for 4 h incubation. The second group received pretreatment with 200 μM AD for 1 h followed by the addition of 1, 10, 20, 30, 40, 50 μM CdCl2 for 4 h incubation. The third group received pretreatment with 200 μM compound 5a for 1 h followed by the addition of 1, 10, 20, 30, 40, 50 μM CdCl2 for 4 h incubation. The fourth group received pretreatment with 200 μM compound 5a for 1 h followed by the addition of 1, 10, 20, 30, 40, 50 μM CdCl2 for 4 h incubation. The CdCl2 different concentrations used in this test were chosen based on preliminary studies to identify concentrations which ranged from producing no effects to cytolethality. A short term exposure (4 h) was chosen to evaluate the effects of metallothionein induction. The cell viability was assessed by measurement of (Lactate Dehydrogenase) LDH released into the medium. LDH release was expressed as a percent of the maximum after lysis of cells with TritonX-100.
On the technique in general: LDH in the medium is a marker of cell lysis.

For data set [4], the system named is mitochondrial functioning. Description: Effect on mitochondrial functioning. As to conditions: at concentrations close to those demonstrating L-type calcium channel blocking activity.

In the case of `CCOC(=O)NCCOCC1=C(C(=O)OCC)C(c2ccccc2Cl)C(C(=O)OC)=CN1` (centres unmarked) [3d], the IC50 in data set [1] stood at 4.25 ± 0.25 µg/mL (≈ 9.1 µM); in data set [2] it was 14 ± 0.39 µg/mL (≈ 30 µM).
Turning to `CCOC(=O)C1=C(COCCNC(=O)OCC(C)C)NC=C(C(=O)OC)C1c1ccccc1Cl` (centres unmarked) [3e], the IC50 was found to be 8.35 ± 0.52 µg/mL (≈ 16.9 µM) in data set [1] and 40 ± 0.43 µg/mL (≈ 80.8 µM) in data set [2].
With `CCOC(=O)C1=C(COCCNS(=O)(=O)c2ccc([N+](=O)[O-])cc2)NC=C(C(=O)OC)C1c1ccccc1Cl` (centres unmarked) [5a], in data set [1], the “fold higher activity in A7r5 cells than in SH-SY5Y cells” value was “at least 10 fold” and the IC50 is 0.18 ± 0.02 µg/mL (≈ 0.31 µM). The IC50 in data set [2] came out at 8 ± 0.23 µg/mL (≈ 13.8 µM). Besides, the “fold decrease in cell lethality (ratio of LC50 vs CdCl2 alone)” value in data set [3] (200 μM for 1 h pretreatment) is reported as 2.5 fold. The “effect on mitochondrial functioning” value in data set [4] is on record as “did not affect mitochondrial functioning”.
Turning to `CCOC(=O)C1=C(COCCNS(=O)(=O)c2ccc(Br)cc2)NC=C(C(=O)OC)C1c1ccccc1Cl` (centres unmarked) [5b], the values for the IC50 in data set [1] and in data set [2] were 0.52 ± 0.48 µg/mL (≈ 0.847 µM) and 20 ± 0.52 µg/mL (≈ 32.6 µM), respectively.
Regarding `CCOC(=O)C1=C(COCCNS(=O)(=O)c2ccc(Cl)c([N+](=O)[O-])c2)NC=C(C(=O)OC)C1c1ccccc1Cl` (centres unmarked) [5c], the IC50 in data set [1] was 0.43 ± 0.52 µg/mL (≈ 0.7 µM); in data set [2], 15 ± 0.53 µg/mL (≈ 24.4 µM).
With `CCOC(=O)C1=C(COCCNS(=O)(=O)c2ccc(F)cc2)NC=C(C(=O)OC)C1c1ccccc1Cl` (centres unmarked) [5d], the IC50 in data set [1] was 0.59 ± 0.61 µg/mL (≈ 1.07 µM); in data set [2], 21 ± 0.49 µg/mL (≈ 38 µM).
Consider `CCOC(=O)C1=C(COCCNS(=O)(=O)C(F)(F)F)NC=C(C(=O)OC)C1c1ccccc1Cl` (centres unmarked) [5e], for which, in data set [1], the “fold higher activity in A7r5 cells than in SH-SY5Y cells” value is recorded as “at least 10 fold” and the IC50 was 0.25 ± 0.63 µg/mL (≈ 0.474 µM). Besides, the IC50 in data set [2] turned out to be 10 ± 0.18 µg/mL (≈ 19 µM). Further, the “fold decrease in cell lethality (ratio of LC50 vs CdCl2 alone)” value in data set [3] (200 μM for 1 h pretreatment) stood at 2.3 fold. In addition, in data set [4], the “effect on mitochondrial functioning” value was “did not affect mitochondrial functioning”.
`CCOC(=O)C1=C(COCCN)NC(C)=C(C(=O)OC)C1c1ccccc1Cl` (centres unmarked) [Amlodipine, reference compound]: the IC50 in data set [1] turned out to be 0.45 ± 0.52 µg/mL (≈ 1.1 µM); in data set [2], 11 ± 0.61 µg/mL (≈ 26.9 µM). Also, the “loss of cell viability ablated by pretreatment” value in data set [3] (200 μM for 1 h pretreatment, 20 μM CdCl2) is 75%. Also, in data set [3] (200 μM for 1 h pretreatment), the “fold decrease in cell lethality (ratio of LC50 vs CdCl2 alone)” value was 2.0 fold. The “effect on LDH leakage” value in data set [3] (1 h pretreatment with 200 μM, compound alone) is on record as “did not affect LDH leakage”.
On to `[Cl][Cd][Cl]` [CdCl2], for which, in data set [3] (4 h exposure, CdCl2 alone, read-out: LC50 (CdCl2 induced cell death)), the CC50 came out at 30.2 ± 0.82 µM.

Usually IC50 stands for the concentration that inhibits the measured activity by half.
